In brackets after ≈: the same amount, converted by molar mass. Peptide text beside a SMILES is read from it.
Key:
Format in all cases: functional
KM-20L2 = test: Growth inhibitory activity against KM20L2 human cancer cell line
NCI-H460 = test: Growth inhibitory activity against NCI-H460 human cancer cell line
OVCAR-3 = test: Growth inhibitory activity against OVCAR-3 human cancer cell line
P388 = test: Inhibitory activity against murine P388 leukemia cell line; conditions: Mus musculus, read-out: ED50 (the source's name)
SF-295 = test: Growth inhibitory activity against SF-295 human cancer cell line
SK-MEL-5 = test: Growth inhibitory activity against SK-MEL-5 human cancer cell line
A498 = test: Growth inhibitory activity against A498 human cancer cell line

| GI50 (NCI-H460) [µg/mL] | GI50 (OVCAR-3; read-out: GI50) [µg/mL] | EC50 (P388) [µg/mL] | GI50 (SK-MEL-5; read-out: GI50) [µg/mL] | GI50 (OVCAR-3) [µg/mL] | GI50 (SK-MEL-5) [µg/mL] | SMILES | GI50 (KM-20L2; read-out: GI50) [µg/mL] | GI50 (SF-295; read-out: GI50) [µg/mL] | GI50 (A498; read-out: GI50) [µg/mL] | GI50 (KM-20L2) [µg/mL] | GI50 (SF-295) [µg/mL] | GI50 (A498) [µg/mL] |
| --- | --- | --- | --- | --- | --- | --- | --- | --- | --- | --- | --- | --- |
| 0.5 (≈ 0.56 µM) | 0.3 (≈ 0.336 µM) | 3.5 (≈ 3.92 µM) | 0.5 (≈ 0.56 µM) |  |  | CC[C@H](C)[C@@H]1NC(=O)[C@H](CC(C)C)NC(=O)[C@@H]2CCCN2C(=O)[C@H](C(C)C)NC(=O)[C@H](Cc2ccc(O)cc2)NC(=O)[C@@H]2CCCN2C(=O)[C@@H]2CCCN2C(=O)[C@H](CC(C)C)NC1=O [AXINASTATIN 5] (cyclo(ILPPYVPL)) | 0.7 (≈ 0.784 µM) | 1.6 (≈ 1.79 µM) | 2.3 (≈ 2.58 µM) |  |  |  |
| 0.3 (≈ 0.336 µM) |  |  |  | 0.04 (≈ 0.0448 µM) | 0.6 (≈ 0.672 µM) | CC[C@H](C)[C@@H]1NC(=O)[C@H](CC(C)C)NC(=O)[C@@H]2CCCN2C(=O)[C@H](C(C)C)NC(=O)[C@H](Cc2ccc(O)cc2)NC(=O)[C@@H]2CCCN2C(=O)[C@@H]2CCCN2C(=O)[C@H]([C@@H](C)CC)NC1=O [Hymenistatin 1] (cyclo(IIPPYVPL)) |  |  |  | 0.1 (≈ 0.112 µM) | 0.3 (≈ 0.336 µM) | 0.7 (≈ 0.784 µM) |
